# According to patent US6413953B1, “Pt(IV) antitumor agent” (AnorMED Inc., priority 1999, dated 2002):
# Where two headings read alike, the source gives them in different places.
# What was measured:
# [1] = test system: CH1; assay: Cell proliferation IC50, human cancer cell lines in culture; format: cell-based; conditions: CH1 cell line; for (IC50-Pt(IV)/IC50-Pt(II)): vs cis-amminedichloro(2-methylpyridine)platinum(II); for IC50: read-out: IC50 (50% decrease in cell proliferation)
# Protocol: (§1) Compounds were tested against human cancer cell lines grown in cell culture according to established procedures (described by Holford, et al., British J. Cancer 1998 77(3) 366-373).
# [2] = test system: A2780; assay: as above; format: cell-based; conditions: A2780 cell line; for (IC50-Pt(IV)/IC50-Pt(II)): vs cis-amminedichloro(2-methylpyridine)platinum(II); for IC50: read-out: IC50 (50% decrease in cell proliferation)
# Protocol: as §1
# [3] = test system: CH1R; assay: as above; format: cell-based; conditions: for (IC50-Pt(IV)/IC50-Pt(II)): CH1R cell line, vs cis-amminedichloro(2-methylpyridine)platinum(II); for resistance factor: CH1R vs CH1, in brackets; for IC50: read-out: IC50 (50% decrease in cell proliferation), CH1R cisplatin-resistant cell line
# Protocol: as §1
# [4] = test system: 2780R; assay: as above; format: cell-based; conditions: for resistance factor: 2780R vs A2780, in brackets; for (IC50-Pt(IV)/IC50-Pt(II)): A2780R cell line, vs cis-amminedichloro(2-methylpyridine)platinum(II); for IC50: read-out: IC50 (50% decrease in cell proliferation), 2780R cisplatin-resistant cell line
# Protocol: as §1
# [5] = test system: 41MR; assay: as above; format: cell-based; conditions: for (IC50-Pt(IV)/IC50-Pt(II)): 41MR cell line, vs cis-amminedichloro(2-methylpyridine)platinum(II); for resistance factor: 41MR vs 41M, in brackets; for IC50: read-out: IC50 (50% decrease in cell proliferation), 41MR cisplatin-resistant cell line
# Protocol: as §1
# [6] = test system: 41M; assay: as above; format: cell-based; conditions: 41M cell line; for (IC50-Pt(IV)/IC50-Pt(II)): vs cis-amminedichloro(2-methylpyridine)platinum(II); for IC50: read-out: IC50 (50% decrease in cell proliferation)
# Protocol: as §1
# [7] = Aqueous solubility at ambient conditions; format: physicochemical; conditions: for Aqueous Solubility / Ratio to Solubility of bis-butyrato-ammine-(cyclohexylamine)dichloro platinum (IV) / Ratio to Solubility of cis-ammine(2-methylpyridine)Dichloroplatinum (II) / Ratio to Solubility of cisplatin: ambient conditions
# [8] = test system: CH1 tumor containing xenografts; assay: In vivo growth delay in CH1 tumor xenografts; conditions: administered at maximum tolerated dose
# Source text: This is in contrast to the growth delay of 0.6 days, achieved with compound E (FIG. 1).
# [9] = background statement; cited from earlier work
# [10] = solubility ratio to cis-amminedichloro(2-methylpyridine)platinum(II)
Compound,(IC50-Pt(IV)/IC50-Pt(II)) [1],IC50 [1],(IC50-Pt(IV)/IC50-Pt(II)) [2],IC50 [2],(IC50-Pt(IV)/IC50-Pt(II)) [3],resistance factor [3],IC50 [3],resistance factor [4],(IC50-Pt(IV)/IC50-Pt(II)) [4],IC50 [4],(IC50-Pt(IV)/IC50-Pt(II)) [5],resistance factor [5],IC50 [5],(IC50-Pt(IV)/IC50-Pt(II)) [6],IC50 [6],Aqueous Solubility [7],Ratio to Solubility of bis-butyrato-ammine-(cyclohexylamine)dichloro platinum (IV) [7],Ratio to Solubility of cis-ammine(2-methylpyridine)Dichloroplatinum (II) [7],Ratio to Solubility of cisplatin [7],growth delay [8],other results
Cc1cccc[n+]1[Pt-2]([NH3+])([OH])([OH])([Cl])[Cl] [Compound B],1.5,3.4 µM,1.8,4.5 µM,3.5,(2.2),7.4 µM,(8),3.0,36 µM,3.2,(1.9),19 µM,1.8,10 µM,˜5 mg/ml,25,7.1,5,–,"(SolPt(IV)/SolPt(II)) [7, 10]: 7.1"
CC(=O)[O][Pt]([OH])([Cl])[O]C(C)=O.Cc1ccccn1.N [Compound C],3.9,8.6 µM,3.4,8.6 µM,8.1,(1.8),17 µM,(5.2),3.8,45 µM,4.3,(0.96),26 µM,4.8,27 µM,20 mg/mL,100,28.6,20,–,"(SolPt(IV)/SolPt(II)) [7, 10]: 28.6"
CC(=O)[O][Pt]([Cl])([O]C(C)=O)[O]C(C)=O.Cc1ccccn1.N [Compound D],–,46 µM,–,47 µM,–,(1.9),88 µM,–,–,> 100 µM,–,–,> 100 µM,–,> 100 µM,80 mg/mL,–,–,–,–,–
CC(=O)[O][Pt]([OH])([Cl])[O]C(C)=O.Cc1ccccn1.N [Compound E],8.2,18 µM,4.2,10.5 µM,21.9,(2.6),46 µM,(5.9),5.2,62 µM,13,(1),78 µM,13.9,78 µM,15 mg/mL,75,21.4,15,0.6 days,(SolPt(IV)/SolPt(II)) [7]: 21.4
"CC(=O)[O][Pt]([NH2])([Cl])([Cl])([NH]C1CCCCC1)[O]C(C)=O [Compound F, bis-acetatoammine(cyclohexylamine)dichloroplatinum(IV), reference compound]",–,–,–,0.4 µM,–,(4),0.4 µM,(4.6),–,1.84 µM,–,(1.2),0.6 µM,–,0.5 µM,<1 mg/mL,<5,<1.4,<1,–,–
"CCCC(=O)[O][Pt]([NH2])([Cl])([Cl])([NH]C1CCCCC1)[O]C(=O)CCC [Compound G, bis-butyratoammine(cyclohexylamine)dichloroplatinum(IV), reference compound]",–,0.0066 µM,–,–,–,(3.7),0.024 µM,–,–,–,–,(0.67),0.048 µM,–,0.072 µM,–,–,–,–,–,–
"[NH2][Pt]1([NH2])[O]C(=O)C2(CCC2)C(=O)[O]1 [carboplatin, diammine[1,1-cyclobutanedicarboxylato (2-)]-O,O′-platinum(II), reference compound]",–,1.3 µM,–,1.8 µM,–,(4.5),6 µM,(14.4),–,25.9 µM,–,(2.7),8.8 µM,–,3.3 µM,14 mg/mL,70,20,14,–,Aqueous Solubility [9]: 14 mg/mL
"Cc1ccccn1.N.[Cl-].[Cl-].[Pt+2] [cis-ammine(2-methylpyridine)dichloroplatinum(II), reference compound]",–,2.2 µM,–,2.5 µM,–,(1),2.1 µM,(4.8),–,12 µM,–,(1.1),6 µM,–,5.6 µM,0.7 mg/mL,3.5,1,0.7,–,–
"N.N.[Cl][Pt][Cl] [cisplatin, [PtCl2(NH3)2], reference compound]",–,0.11 µM,–,0.33 µM,–,(6.5),0.71 µM,(15.7),–,5.2 µM,–,(4.6),1.2 µM,–,0.26 µM,–,–,–,–,34 days,–
ammine(chloro)trihydroxo(2-methylpyridine)platinum(IV) [Compound A],2.7,6 µM,3.8,9.5 µM,5.7,(2),12 µM,(4.3),3.4,41 µM,7.5,(1.8),45 µM,4.5,25 µM,–,–,–,–,32.8 days,–
